Values of other authors, collected in patent publication US10136666B2, “Deep eutectic solvents and flavour generation” (NESTEC S.A., priority 2013, dated 2018).

Conditions: from literature values

Compound: NCCC(=O)O [β-alanine]
- amount that would dissolve in 60 g water: about 33 g
